Laboratory results published in patent US20250262222A1, “HETEROCYCLIC COMPOUNDS, COMPOSITIONS THEREOF, AND METHODS OF TREATMENT THEREWITH” (BeiGene Switzerland GmbH, priority 2022, published 2025).

System: pERK1/2(THR202/TYR204) level in AsPC-1 cell line
Assay: KRAS G12D pERK assay
Assay type: cell-based
Settings: Homo sapiens, ASPC1, 2 h, AsPC-1 cells, 2 h compound treatment, HTRF
Procedure: AsPC-1 cell line was used in this study. Cells were maintained in RPMI-1640 supplemented with 10% fetal bovine serum (Thermo Fisher), 50 units/mL penicillin and streptomycin (Thermo Fisher) and kept at 37° C. in a humidified atmosphere of 5% CO2 in air. Cells were reinstated from frozen stocks that were laid down within 30 passages from the original cells purchased. 30000 cells per well were seeded into a 96-well plate and incubated overnight. Cells were treated with a 10-point dilution series. The final compound concentration is from 0 to 10 μM. After 2 h compound treatment, cells were lysed, and the pERK1/2(THR202/TYR204) level in the cell lysates was detected by HTRF kit (Cisbio). In brief, a total of 16 μL of cell lysate from each well of a 96-well plate was transferred to a 384-well white assay plate. Lysate from each well was incubated with 2 μL of Eu3+-cryptate (donor) labeled anti-phospho-ERK1/2 and 2 μL of D2 (acceptor) labeled anti-phospho-ERK1/2 antibodies (Cisbio) overnight in dark at room temperature. When donor and acceptor are in close proximity, excitation of the donor with laser triggers a Fluorescence Resonance Energy Transfer (FRET) towards the acceptor, which in turn fluoresces at 655 nm wavelength. FRET signals were measured using a PHERAstar FSX reader (BMG Labtech). IC50 determination was performed by fitting the curve of percent inhibition versus the log of the inhibitor concentration using Dotmatics.

Structure (SMILES) | IC50 [µM]
C[C@](O)(COc1nc2c3c(nc(-c4cc(N)cc(Cl)c4C(F)(F)F)c(F)c3n1)OCC[C@@H]1[C@@H]3CC[C@H](CN21)N3)C(F)(F)F [Example 44, (S)-3-(((6aR,7S,10R)-2-(5-amino-3-chloro-2-(trifluoromethyl)phenyl)-1-fluoro-5,6,6a,7,8,9,10,11-octahydro-4-oxa-3,11a,12,14,15-pentaaza-7,10-methanocyclohepta[4,5]cyclo-octa[1,2,3-de]naphthalen-13-yl)oxy)-1,1,1-trifluoro-2-methylpropan-2-ol] | 2.21
CN1C(=O)OC2CC1(COc1nc3c4c(nc(-c5cc(N)cc(Cl)c5C(F)(F)F)c(F)c4n1)OCC[C@@H]1[C@@H]4CC[C@H](CN31)N4)C2 [Example 46, 5-((((6aR,7S,10R)-2-(5-amino-3-chloro-2-(trifluoromethyl)phenyl)-1-fluoro-5,6,6a,7,8,9,10,11-octahydro-4-oxa-3,11a,12,14,15-pentaaza-7,10-methanocyclohepta[4,5]cyclo-octa[1,2,3-de]naphthalen-13-yl)oxy)methyl)-4-methyl-2-oxa-4-azabicyclo[3.1.1]heptan-3-one] | 4.86
COC(=O)N1CC(C)(COc2nc3c4c(nc(-c5cc(N)cc(C)c5C(F)(F)F)c(F)c4n2)OCC[C@@H]2[C@@H]4CC[C@H](CN32)N4)C1 [Example 43, methyl 3-((((6aR,7S,10R)-2-(5-amino-3-methyl-2-(trifluoromethyl)phenyl)-1-fluoro-5,6,6a,7,8,9,10,11-octahydro-4-oxa-3,11a,12,14,15-pentaaza-7,10-methanocyclohepta[4,5]cyclo-octa[1,2,3-de]naphthalen-13-yl)oxy)methyl)-3-methylazetidine-1-carboxylate] | 0.584
Nc1cc(Cl)c(C(F)(F)F)c(-c2nc3c4c(nc(OC[C@@]56CCCN5C[C@H](F)C6)nc4c2F)N2C[C@H]4CC[C@H](N4)[C@H]2CO3)c1 [Example 17, 3-chloro-5-((5aS,6S,9R)-1-fluoro-12-(((2R,7aS)-2-fluorotetrahydro-1H-pyrrolizin-7a(5H)-yl)methoxy)-5a,6,7,8,9,10-hexahydro-5H-4-oxa-3,10a,11,13,14-pentaaza-6,9-methanonaphtho[1,8-ab]heptalen-2-yl)-4-(trifluoromethyl)aniline] | 0.011
COCC12CC(COc3nc4c5c(nc(-c6cc(N)cc(Cl)c6C(F)(F)F)c(F)c5n3)OCC[C@@H]3[C@@H]5CC[C@H](CN43)N5)(CO1)C2 [Example 39, 3-chloro-5-((6aR,7S,10R)-1-fluoro-13-((1-(methoxymethyl)-2-oxabicyclo[2.1.1]hexan-4-yl)methoxy)-5,6,6a,7,8,9,10,11-octahydro-4-oxa-3,11a,12,14,15-pentaaza-7,10-methanocyclohepta[4,5]cyclo-octa[1,2,3-de]naphthalen-2-yl)-4-(trifluoromethyl)aniline] | 0.409
C#Cc1c(F)ccc2cc(O)cc(-c3nc4c5c(nc(OC[C@@]67CCCN6C[C@H](F)C7)nc5c3F)N3CC5CCC(N5)C3CO4)c12 (stereo partly drawn) [Example 11, 5-ethynyl-6-fluoro-4-(1-fluoro-12-(((2R,7aS)-2-fluorotetrahydro-1H-pyrrolizin-7a(5H)-yl)methoxy)-5a,6,7,8,9,10-hexahydro-5H-4-oxa-3,10a,11,13,14-pentaaza-6,9-methanonaphtho[1,8-ab]heptalen-2-yl)naphthalen-2-ol] | 0.03
Cc1cc(N)cc(-c2nc3c4c(nc(OCC56COCC(F)(C5)C6)nc4c2F)N2C[C@H]4CC[C@H](N4)[C@H]2CCO3)c1C(F)(F)F [Example 30, 3-((6aR,7S,10R)-1-fluoro-13-((5-fluoro-3-oxabicyclo[3.1.1]heptan-1-yl)methoxy)-5,6,6a,7,8,9,10,11-octahydro-4-oxa-3,11a,12,14,15-pentaaza-7,10-methanocyclohepta[4,5]cyclo-octa[1,2,3-de]naphthalen-2-yl)-5-methyl-4-(trifluoromethyl)aniline] | 0.198
